Test results from patent publication US5541175A, “Cephalosporin antibiotics” (Lucky, Ltd., priority 1993, dated 1996).
In brackets after ≈: the same amount, converted by molar mass. Like-named read-outs stand apart in the source and are kept apart here.

Key:
Assay in all cases: Minimum inhibitory concentration (agar 2-fold dilution)
Type in all cases: cell-based
[1] = tested on: Escherichia coli TEM9 2639E; details: TEM92639E, 20 h, read-out: Minimum Inhibitory Concentration
Method: (§1) The minimum inhibitory concentration was determined by diluting the test compounds according to 2-fold dilution, suspending them in Muller-Hinton agar medium, inoculating 2 μl of the suspension containing the test strains having 10^7 CFU (Colony Forming Unit) per 1 ml into the medium and then culturing the test strains at 37° C. for 20 hours.

[2] = tested on: Staphylococcus aureus 241; details: read-out: Minimum Inhibitory Concentration
Method: as §1

Escherichia coli 851E = details: E. coli 851E, Muller-Hinton agar, 37° C., 20 hours
Method: as §1

[3] = tested on: Escherichia coli TEM7 3457E; details: TEM73457E, 20 h, read-out: Minimum Inhibitory Concentration
Method: as §1

[4] = tested on: Salmonella typhimurium 14028A; details: Salmonella enterica, read-out: Minimum Inhibitory Concentration
Method: as §1

[5] = tested on: Streptococcus faecalis 29212A; details: Enterococcus faecalis, read-out: Minimum Inhibitory Concentration
Method: as §1

[6] = tested on: Staphylococcus aureus giorgio; details: read-out: Minimum Inhibitory Concentration
Method: as §1

Escherichia coli 3190Y = details: read-out: Minimum Inhibitory Concentration
Method: as §1

[7] = tested on: Staphylococcus aureus epidermidis 887E; details: read-out: Minimum Inhibitory Concentration
Method: as §1

[8] = tested on: Klebsiella aerogenes K1 + 1082E; details: 20 h, read-out: Minimum Inhibitory Concentration
Method: as §1

[9] = tested on: Staphylococcus aureus 6538P; details: read-out: Minimum Inhibitory Concentration
Method: as §1

[10] = tested on: Acinetobacter calcoaceticus 15473A; details: read-out: Minimum Inhibitory Concentration
Method: as §1

[11] = tested on: Pseudomonas aeruginosa 1912E; details: read-out: Minimum Inhibitory Concentration
Method: as §1

Escherichia coli 10536 = details: read-out: Minimum Inhibitory Concentration
Method: as §1

[12] = tested on: Escherichia coli TEM3 3455E; details: TEM33455E, 20 h, read-out: Minimum Inhibitory Concentration
Method: as §1

[13] = tested on: Escherichia coli TEM1 1193E; details: TEM11193E, 20 h, read-out: Minimum Inhibitory Concentration
Method: as §1

Proteus vulgaris 6059A = details: read-out: Minimum Inhibitory Concentration
Method: as §1

[14] = tested on: Escherichia coli TEM5 3739E; details: TEM53739E, 20 h, read-out: Minimum Inhibitory Concentration
Method: as §1

[15] = tested on: Pseudomonas aeruginosa 10145; details: read-out: Minimum Inhibitory Concentration
Method: as §1

[16] = tested on: Pseudomonas aeruginosa 6065; details: read-out: Minimum Inhibitory Concentration
Method: as §1

Staphylococcus aureus 77 = details: read-out: Minimum Inhibitory Concentration
Method: as §1

Enterobacter cloacae P99 = details: P99, 20 h, read-out: Minimum Inhibitory Concentration
Method: as §1

[17] = tested on: Citrobacter diversus 2046E; details: Citrobacter koseri, read-out: Minimum Inhibitory Concentration
Method: as §1

[18] = tested on: Klebsiella aerogenes SHV-1 1976E; details: SHV11976E
Method: as §1

[19] = tested on: Enterobacter cloacae IND + VE 1194E; details: read-out: Minimum Inhibitory Concentration
Method: as §1

[20] = tested on: Serratia marcescens 1826E; details: read-out: Minimum Inhibitory Concentration
Method: as §1

[21] = Staphylococcus aureus, S. aureus 241, Muller-Hinton agar, 37° C., 20 hours
[22] = S. typhimurium 14028A, Muller-Hinton agar, 37° C., 20 hours
[23] = S. faecalis 29212A, Muller-Hinton agar, 37° C., 20 hours
[24] = S. aureus giorgio, Muller-Hinton agar, 37° C., 20 hours
[25] = E. coli 3190Y, Muller-Hinton agar, 37° C., 20 hours
[26] = S. aureus epidermidis 887E, Muller-Hinton agar, 37° C., 20 hours
[27] = S. aureus 6538P, Muller-Hinton agar, 37° C., 20 hours
[28] = A. calcoaceticus 15473A, Muller-Hinton agar, 37° C., 20 hours
[29] = P. aeruginosa 1912E, Muller-Hinton agar, 37° C., 20 hours
[30] = P. vulgaris 6059A, Muller-Hinton agar, 37° C., 20 hours
[31] = Pseudomonas aeruginosa, P. aeruginosa 10145, Muller-Hinton agar, 37° C., 20 hours
[32] = Pseudomonas aeruginosa, P. aeruginosa 6065, Muller-Hinton agar, 37° C., 20 hours
[33] = Staphylococcus aureus, S. aureus 77, Muller-Hinton agar, 37° C., 20 hours
[34] = C. diversus 2046E, Muller-Hinton agar, 37° C., 20 hours
[35] = K. aerogenes SHV-1 1976E, Muller-Hinton agar, 37° C., 20 hours
[36] = E. cloacae IND + VE 1194E, Muller-Hinton agar, 37° C., 20 hours
[37] = S. marcescens 1826E, Muller-Hinton agar, 37° C., 20 hours
[38] = Escherichia coli, E. coli 10536, Muller-Hinton agar, 37° C., 20 hours

SMILES	MIC [1] [µg/mL]	MIC (Escherichia coli 851E) [µg/mL]	MIC [3] [µg/mL]	MIC [8] [µg/mL]	MIC [12] [µg/mL]	MIC [13] [µg/mL]	MIC [14] [µg/mL]	MIC (Enterobacter cloacae P99) [µg/mL]	MIC [2, 21] [µg/mL]	MIC [4, 22] [µg/mL]	MIC [5, 23] [µg/mL]	MIC [6, 24] [µg/mL]	MIC (Escherichia coli 3190Y; [25]) [µg/mL]	MIC [7, 26] [µg/mL]	MIC [9, 27] [µg/mL]	MIC [10, 28] [µg/mL]	MIC [11, 29] [µg/mL]	MIC (Proteus vulgaris 6059A; [30]) [µg/mL]	MIC [15, 31] [µg/mL]	MIC [16, 32] [µg/mL]	other results
CC(C)(O/N=C(\C(=O)N[C@@H]1C(=O)N2C(C(=O)[O-])=C(C[n+]3ccccc3)CS[C@H]12)c1csc(N)n1)C(=O)O [CAZ, Ceftazidime, reference compound]	> 128	0.063 (≈ 0.115 µM)	16 (≈ 29.3 µM)	0.5 (≈ 0.915 µM)	8 (≈ 14.6 µM)	0.25 (≈ 0.457 µM)	8 (≈ 14.6 µM)	64 (≈ 117 µM)													MIC ([2]; Staphylococcus aureus, 241, 20 h): > 128 µg/mL; MIC ([4]; TYPHIMURIUM, 20 h): 0.25 µg/mL (≈ 0.457 µM); MIC ([5]; 29212A, 20 h): > 128 µg/mL; MIC ([6]; 20 h): 4 µg/mL (≈ 7.32 µM); MIC (Escherichia coli 3190Y; 3190Y, 20 h): 0.063 µg/mL (≈ 0.115 µM); MIC ([7]; 20 h): > 128 µg/mL; MIC ([9]; 6538P, 20 h): 16 µg/mL (≈ 29.3 µM); MIC ([10]; 15473A, 20 h): 2 µg/mL (≈ 3.66 µM); MIC ([11]; 1912E, 20 h): 1 µg/mL (≈ 1.83 µM); MIC (Escherichia coli 10536; Escherichia coli, 10536, 20 h): 0.13 µg/mL (≈ 0.238 µM); MIC (Proteus vulgaris 6059A; 6059A, 20 h): 0.063 µg/mL (≈ 0.115 µM); MIC ([15]; Pseudomonas aeruginosa, 10145, 20 h): 2 µg/mL (≈ 3.66 µM); MIC ([16]; Pseudomonas aeruginosa, 6065, 20 h): 16 µg/mL (≈ 29.3 µM); MIC (Staphylococcus aureus 77; Staphylococcus aureus, 77, 20 h): 32 µg/mL (≈ 58.5 µM); MIC ([17]; 2046E, 20 h): 0.5 µg/mL (≈ 0.915 µM); MIC ([18]; 20 h): 0.25 µg/mL (≈ 0.457 µM); MIC ([19]; 20 h): 128 µg/mL (≈ 234 µM); MIC ([20]; 1826E, 20 h): 0.25 µg/mL (≈ 0.457 µM)
Nc1cc(N)[n+](C/C=C/C2=C(C(=O)[O-])N3C(=O)[C@@H](NC(=O)/C(=N\O[C@@H](C(=O)O)c4ccc(O)c(O)c4)c4csc(N)n4)[C@H]3SC2)cn1 [Compound I-1b, 7-[(Z)-2-(2-aminothiazol-4-yl)-2-(α-carboxy-3,4-dihydroxybenzyloxyimino)acetamido]-3-[(E)-3-(4,6-diaminopyrimidinium-1-yl)-1-propen-1-yl]-3-cephem-4-carboxylate]	2 (≈ 2.93 µM)	0.13 (≈ 0.19 µM)	0.25 (≈ 0.366 µM)	2 (≈ 2.93 µM)	0.5 (≈ 0.731 µM)	0.25 (≈ 0.366 µM)	2 (≈ 2.93 µM)	128 (≈ 187 µM)	128 (≈ 187 µM)	0.13 (≈ 0.19 µM)	8 (≈ 11.7 µM)	0.5 (≈ 0.731 µM)	0.13 (≈ 0.19 µM)	64 (≈ 93.6 µM)	0.5 (≈ 0.731 µM)	4 (≈ 5.85 µM)	64 (≈ 93.6 µM)	0.5 (≈ 0.731 µM)	32 (≈ 46.8 µM)	32 (≈ 46.8 µM)	MIC (Escherichia coli 10536; Escherichia coli, 10536, 20 h): 0.13 µg/mL (≈ 0.19 µM); MIC (Staphylococcus aureus 77; [33]): 2 µg/mL (≈ 2.93 µM); MIC [17, 34]: 16 µg/mL (≈ 23.4 µM); MIC [18, 35]: 1 µg/mL (≈ 1.46 µM); MIC [19, 36]: 64 µg/mL; MIC [20, 37]: 2 µg/mL (≈ 2.93 µM)
Nc1cc[n+](C/C=C/C2=C(C(=O)[O-])N3C(=O)[C@@H](NC(=O)/C(=N\O[C@@H](C(=O)O)c4ccc(O)c(O)c4)c4csc(N)n4)[C@H]3SC2)cn1 [Compound I-2b, 7-[(Z)-2-(2-aminothiazol-4-yl)-2-(α-carboxy-3,4-dihydroxybenzyloxyimino)acetamido]-3-[(E)-3-(4-aminopyrimidinium-1-yl)-1-propen-1-yl]-3-cephem-4-carboxylate]	0.5 (≈ 0.748 µM)	0.13 (≈ 0.194 µM)	0.25 (≈ 0.374 µM)	2 (≈ 2.99 µM)	0.25 (≈ 0.374 µM)	0.25 (≈ 0.374 µM)	0.1 (≈ 0.15 µM)	32 (≈ 47.9 µM)	128 (≈ 191 µM)	0.25 (≈ 0.374 µM)	4 (≈ 5.98 µM)	0.25 (≈ 0.374 µM)	0.13 (≈ 0.194 µM)	8 (≈ 12 µM)	0.5 (≈ 0.748 µM)	2 (≈ 2.99 µM)	8 (≈ 12 µM)	0.5 (≈ 0.748 µM)	8 (≈ 12 µM)	64 (≈ 95.7 µM)	MIC (Escherichia coli 10536; [38]): 0.13 µg/mL (≈ 0.194 µM); MIC (Staphylococcus aureus 77; [33]): 2 µg/mL (≈ 2.99 µM); MIC [17, 34]: 4 µg/mL (≈ 5.98 µM); MIC [18, 35]: 1 µg/mL (≈ 1.5 µM); MIC [19, 36]: 16 µg/mL; MIC [20, 37]: 1 µg/mL (≈ 1.5 µM)
Nc1nc(/C(=N/O[C@@H](C(=O)O)c2ccc(O)c(O)c2)C(=O)N[C@@H]2C(=O)N3C(C(=O)[O-])=C(/C=C/C[n+]4cnc(N)c5c4CCC5)CS[C@H]23)cs1 [Compound I-3b, 7-[(Z)-2-(2-aminothiazol-4-yl)-2-(α-carboxy-3,4-dihydroxybenzyloxyimino)acetamido]-3-[(E)-3-(4-amino-5,6-cyclopentanopyrimidinium-1-yl)-1-propen-1-yl]-3-cephem-4-carboxylate]	2 (≈ 2.82 µM)	0.25 (≈ 0.353 µM)	0.5 (≈ 0.705 µM)	1 (≈ 1.41 µM)	0.5 (≈ 0.705 µM)	0.25 (≈ 0.353 µM)	2 (≈ 2.82 µM)	64 (≈ 90.3 µM)	> 128	0.13 (≈ 0.183 µM)	8 (≈ 11.3 µM)	0.5 (≈ 0.705 µM)	0.25 (≈ 0.353 µM)	64 (≈ 90.3 µM)	0.5 (≈ 0.705 µM)	4 (≈ 5.64 µM)	8 (≈ 11.3 µM)	1 (≈ 1.41 µM)	8 (≈ 11.3 µM)	64 (≈ 90.3 µM)	MIC (Escherichia coli 10536; [38]): 0.13 µg/mL (≈ 0.183 µM); MIC (Staphylococcus aureus 77; [33]): 4 µg/mL (≈ 5.64 µM); MIC [17, 34]: 4 µg/mL (≈ 5.64 µM); MIC [18, 35]: 1 µg/mL (≈ 1.41 µM); MIC [19, 36]: 32 µg/mL; MIC [20, 37]: 4 µg/mL (≈ 5.64 µM)
Cc1c(N)nc[n+](C/C=C/C2=C(C(=O)[O-])N3C(=O)[C@@H](NC(=O)/C(=N\O[C@@H](C(=O)O)c4ccc(O)c(O)c4)c4csc(N)n4)[C@H]3SC2)c1N [Compound I-4b, 7-[(Z)-2-(2-aminothiazol-4-yl)-2-(α-carboxy-3,4-dihydroxybenzyloxyimino)acetamido]-3-[(E)-3-(4,6-diamino-5-methylpyrimidinium-1-yl)-1-propen-1-yl]-3-cephem-4-carboxylate]	1 (≈ 1.43 µM)	0.13 (≈ 0.186 µM)	0.25 (≈ 0.358 µM)	2 (≈ 2.87 µM)	0.5 (≈ 0.717 µM)	0.25 (≈ 0.358 µM)	1 (≈ 1.43 µM)	16 (≈ 22.9 µM)	128 (≈ 183 µM)	0.13 (≈ 0.186 µM)	8 (≈ 11.5 µM)	0.5 (≈ 0.717 µM)	0.13 (≈ 0.186 µM)	32 (≈ 45.9 µM)	0.5 (≈ 0.717 µM)	4 (≈ 5.73 µM)	8 (≈ 11.5 µM)	1 (≈ 1.43 µM)	4 (≈ 5.73 µM)	16 (≈ 22.9 µM)	MIC (Escherichia coli 10536; [38]): 0.13 µg/mL (≈ 0.186 µM); MIC (Staphylococcus aureus 77; [33]): 2 µg/mL (≈ 2.87 µM); MIC [17, 34]: 4 µg/mL (≈ 5.73 µM); MIC [18, 35]: 1 µg/mL (≈ 1.43 µM); MIC [19, 36]: 8 µg/mL; MIC [20, 37]: 2 µg/mL (≈ 2.87 µM)
